Assay results published in US9597407B2, “Targeted antimicrobial moieties” (C3 Jian, Inc., priority 2009, dated 2017).
“Also recorded” adds a separate entry of the source.

Each substance was assayed on bacteria (assay: Binding of targeting peptides to microorganisms (Table 3)). Settings: microorganism bound by the targeting peptide; binding in aqueous buffers chosen by peptide solubility, preferably 1x PBS.
With “PF-142 (GIDRGCQAAR; Peptide with targeting and/or antimicrobial activity)” the “Target(s)” value was “S. mutans”. With “PF-154 (GIKKSKHPSTDDYVVKTTIDSL; Peptide with targeting and/or antimicrobial activity)” the “Target(s)” value was “S. mutans”. For “PF-304 (LVKDTSDIKNDLNNIEIVTSKNSNDIAKLKSVK; Peptide with targeting and/or antimicrobial activity)”, the “Target(s)” value was “S. mutans”. For “PF-177 (VTSEPGIAHDIRLLPRAAAFR; Peptide with targeting and/or antimicrobial activity)”, the “Target(s)” value was “M. luteus and MRSA and E. faecalis and C. jeikeium”. For “PF-284 (MRYITYSLIPRLLSKKVIHQQ; Peptide with targeting and/or antimicrobial activity)”, the “Target(s)” value was “C. difficile”. With “PF-101 (DPVPERQEQACACHRTAKPGK; Peptide with targeting and/or antimicrobial activity)” the “Target(s)” value was “S. mutans”. “PF-256 (EYFKQVYVKNEKIYSFWICKDLSPKEAAKRAEDILVKLK; Peptide with targeting and/or antimicrobial activity)” was tested, and the “Target(s)” value was “S. epidermidis”.

Same assay, conditions: microorganism the targeting peptide binds; binding in aqueous buffers that varied with peptide solubility, preferably 1x PBS
In the case of “1T-273 (YNEPNYKWLESYKIYKQRCEDRTGMYYTEET; Peptide with targeting and/or antimicrobial activity) [Peptide 1T-273]”, the “Target(s)” value is reported as “F. nucleatum; also recorded: P. gingivalis; also recorded: T. denticola; also recorded: S. mitis; also recorded: S. mutans; also recorded: S. oralis”. For “1T-286 (LGFFNNKADLVKADTERDNRMSSLKIKDL; Peptide with targeting and/or antimicrobial activity) [Peptide 1T-286]”, the “Target(s)” value was “S. sanguinis”. With “1T-297 (RSLRLNNALTKLPKLWYNRIKEAFYAYNDYDK; Peptide with targeting and/or antimicrobial activity) [Peptide 1T-297]” the “Target(s)” value was “A. naeslundii; also recorded: F. nucleatum; also recorded: T. denticola; also recorded: S. mitis; also recorded: S. mutans; also recorded: S. oralis”. “1T-237 (EDPVPNHFTLRRNKKEKPSKS; Peptide with targeting and/or antimicrobial activity) [Peptide 1T-237]” was tested, and the “Target(s)” value was “S. sanguinis”. In the case of “PF-062 (MKKKRINNDILGRMIYSSSIDKRNLYNLKYYE; Peptide with targeting and/or antimicrobial activity)”, the “Target(s)” value is reported as “S. epidermidis and M. luteus and E. coli and P. aeruginosa and MRSA and S. pneumoniae and E. faecalis and C. jeikeium”. “1T-291 (DMKIIKLYIKILSFLFIKYCNKKLNSVKLKA; Peptide with targeting and/or antimicrobial activity) [Peptide 1T-291]” was tested, and the “Target(s)” value was “A. naeslundii; also recorded: F. nucleatum; also recorded: P. gingivalis; also recorded: T. denticola; also recorded: S. mitis; also recorded: S. mutans; also recorded: S. oralis”.

Same assay, conditions: peptide binding in aqueous buffers that varied depending on peptide solubility; preferably 1x PBS
With “PF-717 (PQSEVTFENIYAPKANGGGLYGI; Peptide with targeting and/or antimicrobial activity)” the “Target(s) (microorganism bound by the targeting peptide)” value was “E. coli”. With “PF-503 (VVTLKDIVAVIEDQGYDVQ; Peptide with targeting and/or antimicrobial activity)” the “Target(s) (microorganisms bound by the targeting peptide)” value was “S. mutans”. In the case of “PF-493 (PGAFFFCRGRGCWCGIGW; Peptide with targeting and/or antimicrobial activity)”, the “Target(s) (microorganisms bound by the targeting peptide)” value is reported as “S. mutans; also recorded: B. subtilis; also recorded: E. coli”. For “PF-C093 (EKLGTMV; Peptide with targeting and/or antimicrobial activity)”, the “Target(s) (microorganism bound by the targeting peptide)” value was “A. naeslundii; also recorded: F. nucleatum; also recorded: S. mutans”. In the case of LVLRICTDLFTFIKWTIKQRKS [PF-497], the “Target(s) (microorganisms bound by the targeting peptide)” value is reported as “S. mutans; also recorded: B. subtilis; also recorded: E. coli”. With “PF-409 (DLVQSILSEFKKSG; Peptide with targeting and/or antimicrobial activity)” the “Target(s) (microorganisms bound by the targeting peptide)” value was “S. epidermidis and MRSA and C. jeikeium and C. jejuni”. With “PF-441 (TQVHKMARGIDPGPANGIYR; Peptide with targeting and/or antimicrobial activity)” the “Target(s) (microorganisms bound by the targeting peptide)” value was “C. jeikeium”. With “PF-S029 (TSDTQSQSPWLFDNADIVNIYPVQLMHSSDND; Peptide with targeting and/or antimicrobial activity)” the “Target(s) (microorganism bound by the targeting peptide)” value was “M. luteus; also recorded: P. mirabilis; also recorded: E. coli; also recorded: C. albicans; also recorded: C. jeikeium; also recorded: C. jejuni”. With “PF-483 (EDNKDKKDKKDK; Peptide with targeting and/or antimicrobial activity)” the “Target(s) (microorganisms bound by the targeting peptide)” value was “P. mirabilis; also recorded: C. jeikeium; also recorded: C. jejuni”. For “PF-795 (ALHKSGIQVIADWVPDQIYN; Peptide with targeting and/or antimicrobial activity)”, the “Target(s) (microorganism bound by the targeting peptide)” value was “S. mutans”. “PF-S018 (GMPQIPRLRI; Peptide with targeting and/or antimicrobial activity)” was tested, and the “Target(s) (microorganism bound by the targeting peptide)” value was “S. epidermidis and M. luteus and C. albicans and MRSA and E. faecalis and C. jeikeium and C. jejuni”. With “PF-706 (LGYGAWIGCGLGLNGFHRID; Peptide with targeting and/or antimicrobial activity)” the “Target(s) (microorganism bound by the targeting peptide)” value was “L. pneumophila”. “PF-S007 (VVAGVVLLTALAVGSKRKEKKQIKEIQRLLAATR; Peptide with targeting and/or antimicrobial activity)” was tested, and the “Target(s) (microorganism bound by the targeting peptide)” value was “S. epidermidis and MRSA”. In the case of “PF-486 (MQKEGEEDY; Peptide with targeting and/or antimicrobial activity)”, the “Target(s) (microorganisms bound by the targeting peptide)” value is reported as “S. mutans”. “PF-716 (HGENHHHKSDEKDNDSSEKKD; Peptide with targeting and/or antimicrobial activity)” was tested, and the “Target(s) (microorganism bound by the targeting peptide)” value was “S. mutans”. With “PF-491 (IHQYSSKPDIVGQEAKTVQQINS; Peptide with targeting and/or antimicrobial activity)” the “Target(s) (microorganisms bound by the targeting peptide)” value was “S. mutans; also recorded: E. coli”. With “PF-489 (KVDRVSTTITEKIK; Peptide with targeting and/or antimicrobial activity)” the “Target(s) (microorganisms bound by the targeting peptide)” value was “S. mutans”. With “PF-502 (NKGKQMQDQTGKQPIVDNG; Peptide with targeting and/or antimicrobial activity)” the “Target(s) (microorganisms bound by the targeting peptide)” value was “S. mutans”. In the case of “PF-783 (FTSEVRGVFTYRVNKAGLITNMRGYWNLDMMTFGNQE; Peptide with targeting and/or antimicrobial activity)”, the “Target(s) (microorganism bound by the targeting peptide)” value is reported as “Mycobacteria spp”.

Same assay, conditions: peptide binding in aqueous buffers varied by peptide solubility; preferably 1x PBS
With “1T-89 (HEDDKRRGMSVEVLGFEVVQHEE; Peptide with targeting and/or antimicrobial activity) [Peptide 1T-89]” the “Target(s) (microorganism bound by the targeting peptide)” value was “S. mitis; also recorded: S. mutans”. In the case of “1T-28 (VSRDEAMEFIDREWTTLQPAGKSHA; Peptide with targeting and/or antimicrobial activity) [Peptide 1T-28]”, the “Target(s) (microorganism bound by the targeting peptide)” value is reported as “P. aeruginosa”. With “1T-110 (LAAKTAVCVGRAFM; Peptide with targeting and/or antimicrobial activity) [Peptide 1T-110]” the “Target(s) (microorganism bound by the targeting peptide)” value was “A. naeslundii; also recorded: P. gingivalis; also recorded: S. epidermidis; also recorded: S. gordonii; also recorded: S. mitis; also recorded: S. mutans; also recorded: S. oralis; also recorded: S. sanguinis”. For “1T-24 (EEAEEKLAEVSQAVKRLVR; Peptide with targeting and/or antimicrobial activity) [Peptide 1T-24]”, the “Target(s) (microorganism bound by the targeting peptide)” value was “P. aeruginosa”. In the case of “1T-100 (LDPLEPRIAPPGDRSHQGAPACHRDPLRGRSARDAER; Peptide with targeting and/or antimicrobial activity) [Peptide 1T-100]”, the “Target(s) (microorganism bound by the targeting peptide)” value is reported as “S. gordonii; also recorded: S. mitis; also recorded: S. mutans”. For “1T-33 (VRTLTILVIFIFNYLKSISYKLKQPFENNLAQSMISI; Peptide with targeting and/or antimicrobial activity) [Peptide 1T-33]”, the “Target(s) (microorganism bound by the targeting peptide)” value was “S. aureus; also recorded: S. epidermidis; also recorded: C. jeikeium; also recorded: C. xerosis; also recorded: C. striatum; also recorded: P. aeruginosa”. For “1T-4 (LDAYGELVGGN; Peptide with targeting and/or antimicrobial activity) [Peptide 1T-4]”, the “Target(s) (microorganism bound by the targeting peptide)” value was “S. gordonii; also recorded: S. sanguinis; also recorded: S. oxalis; also recorded: V. atypica; also recorded: L. casei; also recorded: S. mutans”. In the case of “1T-48 (KLQVHHGRATHTLLLQPPLCAPGTIR; Peptide with targeting and/or antimicrobial activity) [Peptide 1T-48]”, the “Target(s) (microorganism bound by the targeting peptide)” value is reported as “S. aureus; also recorded: S. epidermidis; also recorded: C. jeikeium; also recorded: C. xerosis; also recorded: C. striatum; also recorded: P. aeruginosa”. In the case of “1T-20 (PALVDLSNKEAVWAVLDDHS; Peptide with targeting and/or antimicrobial activity) [Peptide 1T-20]”, the “Target(s) (microorganism bound by the targeting peptide)” value is reported as “S. mutans; also recorded: P. aeruginosa”. “1T-65 (HARAAVGVAELPRGAAVEVELIAAVRP; Peptide with targeting and/or antimicrobial activity) [Peptide 1T-65]” was tested, and the “Target(s) (microorganism bound by the targeting peptide)” value was “S. mutans; also recorded: S. aureus; also recorded: S. epidermidis; also recorded: C. jeikeium; also recorded: C. xerosis; also recorded: C. striatum; also recorded: P. aeruginosa”. For “1T-42 (TVLDWLSLALATGLFVYLLVALLRADRA; Peptide with targeting and/or antimicrobial activity) [Peptide 1T-42]”, the “Target(s) (microorganism bound by the targeting peptide)” value was “S. aureus; also recorded: S. epidermidis; also recorded: C. xerosis; also recorded: C. striatum; also recorded: P. aeruginosa”. With “1T-36 (VYRHLRFIDGKLVEIRLERK; Peptide with targeting and/or antimicrobial activity) [Peptide 1T-36]” the “Target(s) (microorganism bound by the targeting peptide)” value was “S. aureus; also recorded: S. epidermidis; also recorded: C. jeikeium; also recorded: C. xerosis; also recorded: C. striatum; also recorded: P. aeruginosa”.
